Measured values reported in patent US20240041827A1, “COMPOSITIONS FOR THE TREATMENT OF FAT RELATED CONDITIONS AND DISORDERS” (priority 2020, published 2024).

Tested on: human visceral preadipocytes
Test: in vitro
Experimental: Human visceral preadipocytes were seeded in 96-well white clear bottom plates at 10,000 cells per well in 100 μl pre-adipocyte medium and incubated overnight at 37° C. 5% CO2. On the following day, adipogenic differentiation was induced by addition of 100 μl/well differentiation medium and incubation continued for 5 days. Adipogenic differentiation was verified by microscopic evaluation, addition of adipored reagents and fluorescent measurement at Ex485 nm/Em572 nm. […] Staurosporine (1 μM) and 0.2% DMSO were used as controls. Plates were incubated at 37° C. 5% CO2 for 2, 6 and 24 hours. Following incubation, cytotoxicity was measured using Cell Titer Glo 2.0 (Promega).
Test Item RZL-12 (1-300 μM) was prepared on the day of the testing as 150 mM stock solutions in DMSO. The 150 mM represents a 500×stock of the highest desired tested concentration. The 150 mM stock solution was first serially diluted in DMSO to acquire 500×stock solutions for each of the RZL-012 concentrations. The 500×stock solutions were then diluted 1:25 in medium to acquire 20×intermediate stock solutions. Finally, the 20×intermediate stock solutions were further diluted 1:20 in the assay (on the plate) that included seeded cells.
The 600 μM represents a 20× stock of the highest desired tested concentration. […] Finally, the 20×intermediate stock solutions were further diluted 1:20 in the assay plate that included seeded cells.
Human visceral pre-adipocytes (HPrAD-vis): HPrAD-vis cells (Lonza cat #PT-5005) were thawed at 37° C. and transferred into 50 ml tubes containing pre-adipocytes PGM-2 growth medium (PBM-2, 10% FBS, 1-glutamine, GA-1000). Cells were centrifuged at 300 g for 10 minutes, the supernatant was removed (Leaving about 1 ml of wash medium for not disrupting the cells) and 2 ml fresh PGM-2 medium was added. After resuspension, cells were counted and seeded in T-75 and T25 flasks at a density of 9,000 cells/cm^2 ([…], 225,000 cells/T25 flask). Medium was changed every 2-3 days until reached confluence of 70%.
Cells were sub-cultured only once, as soon as they reached 70% confluence. For this purpose, the culture medium of each flask was removed and cells were washed once with 5 ml PBS. The flask was shaken to ensure that the entire surface was covered and the PBS was removed. Then, 3 ml/T75 flask or 1 ml/T25 flask of fresh dedicated Trypsin/EDTA solution (from Lonza) was added and the flasks were incubated for 3-4 minutes at RT until ˜90% cells were detached. The Trypsin/EDTA solution was then neutralized by addition of 6 ml/T75 flask or 3 ml/T25 flask of full PGM-2 growth medium. Cells were collected in 50 ml tubes and centrifuged 10 minutes at 300 g. The supernatant was removed and the cells were resuspended in 3 ml fresh medium. Cells were then counted using a haemacytometer slide after being diluted 1:2 in trypan blue (SIGMA). For sub-culturing, cells were seeded in new T75 flasks at a density of 9,000 cells/cm^2 containing 15 ml fresh growth medium. Alternatively, the cells were seeded in 96-well culture plates at a density of 10,000 cells/well for the cell treatments.
HPrAD-vis cells: HPrAD-vis passaged once were seeded in 96-well plates as described above (10000cells/well in 100 μl medium) and allowed to settle overnight at 37° C., 5% CO2. Following day, adipogenic differentiation was induced by addition of 100 μl/well differentiation medium and incubated for 5 days. Adipogenic differentiation was verified by microscopic evaluation, addition of adipored reagents and fluorescent measurement at Ex485 nm/Em572 nm. In the morning of day 6, test and reference items were prepared as described above. Cells' medium was replaced with 90 μl fresh differentiation medium. […] Staurosporine (1 μM) and 0.2% DMSO were used as controls. Plates were incubated at 37° C. 5% CO2 for 2, 6 and 24 hours. Following incubation, cell viability was determined using the CellTiter-Gg® viability reagent (Promega) with reading of plates for luminescence. […]

In the case of `C[N+](C)(C)CCCCCn1c2ccc(Br)cc2c2cc(Br)ccc21.[Cl-]` [RZL-012, 5-(3,6-dibromo-9H-carbazol-9-yl)-N,N,N-trimethylpentan-1-aminium chloride], the “Average RZL-012 and collagenase induced cell death (% vs untreated cells)” value (RZL12 10 μM, Collagenase 0, 2 h of incubation) is reported as 10.4%, the “Average RZL-012 and collagenase induced cell death (% vs untreated cells)” value (RZL12 10 μM, Collagenase 0, 24 h of incubation) is reported as 12.80% and the “Average RZL-012 and collagenase induced cell death (% vs untreated cells)” value (RZL12 10 μM, Collagenase 0.1 μM, 2 h of incubation) is reported as 4.9%. For the same compound, the “Average RZL-012 and collagenase induced cell death (% vs untreated cells)” value (RZL12 10 μM, Collagenase 0.1 μM, 24 h of incubation) was 9.43%, the “Average RZL-012 and collagenase induced cell death (% vs untreated cells)” value (RZL12 10 μM, Collagenase 0.3 μM, 2 h of incubation) was 5.0% and the “Average RZL-012 and collagenase induced cell death (% vs untreated cells)” value (RZL12 10 μM, Collagenase 0.3 μM, 24 h of incubation) was 5.50%. For the same compound, the “Average RZL-012 and collagenase induced cell death (% vs untreated cells)” value (RZL12 10 μM, Collagenase 1 μM, 2 h of incubation) was 7.8%, the “Average RZL-012 and collagenase induced cell death (% vs untreated cells)” value (RZL12 10 μM, Collagenase 1 μM, 24 h of incubation) was 16.08% and the “Average RZL-012 and collagenase induced cell death (% vs untreated cells)” value (RZL12 10 μM, Collagenase 3 μM, 2 h of incubation) was 17.7%. For the same compound, the “Average RZL-012 and collagenase induced cell death (% vs untreated cells)” value (RZL12 10 μM, Collagenase 3 μM, 24 h of incubation) was 33.99%, the “Average RZL-012 and collagenase induced cell death (% vs untreated cells)” value (RZL12 10 μM, Collagenase 10 μM, 2 h of incubation) was 22.3% and the “Average RZL-012 and collagenase induced cell death (% vs untreated cells)” value (RZL12 10 μM, Collagenase 10 μM, 24 h of incubation) was 65.12%. The “Average RZL-012 and collagenase induced cell death (% vs untreated cells)” value (RZL12 10 μM, Collagenase 30 μM, 2 h of incubation) was 45.0%, the “Average RZL-012 and collagenase induced cell death (% vs untreated cells)” value (RZL12 10 μM, Collagenase 30 μM, 24 h of incubation) was 80.04% and the “Average RZL-012 and collagenase induced cell death (% vs untreated cells)” value (RZL12 30 μM, Collagenase 0, 2 h of incubation) was 50.4%. The “Average RZL-012 and collagenase induced cell death (% vs untreated cells)” value (RZL12 30 μM, Collagenase 0, 24 h of incubation) was 72.72%, the “Average RZL-012 and collagenase induced cell death (% vs untreated cells)” value (RZL12 30 μM, Collagenase 0.1 μM, 2 h of incubation) was 43.8% and the “Average RZL-012 and collagenase induced cell death (% vs untreated cells)” value (RZL12 30 μM, Collagenase 0.1 μM, 24 h of incubation) was 28.35%. The “Average RZL-012 and collagenase induced cell death (% vs untreated cells)” value (RZL12 30 μM, Collagenase 0.3 μM, 2 h of incubation) was 35.0%, the “Average RZL-012 and collagenase induced cell death (% vs untreated cells)” value (RZL12 30 μM, Collagenase 0.3 μM, 24 h of incubation) was 23.76% and the “Average RZL-012 and collagenase induced cell death (% vs untreated cells)” value (RZL12 30 μM, Collagenase 1 μM, 2 h of incubation) was 45.8%. For the same compound, the “Average RZL-012 and collagenase induced cell death (% vs untreated cells)” value (RZL12 30 μM, Collagenase 1 μM, 24 h of incubation) was 31.37%, the “Average RZL-012 and collagenase induced cell death (% vs untreated cells)” value (RZL12 30 μM, Collagenase 3 μM, 2 h of incubation) was 49.7% and the “Average RZL-012 and collagenase induced cell death (% vs untreated cells)” value (RZL12 30 μM, Collagenase 3 μM, 24 h of incubation) was 79.97%. The “Average RZL-012 and collagenase induced cell death (% vs untreated cells)” value (RZL12 30 μM, Collagenase 10 μM, 2 h of incubation) was 33.2%, the “Average RZL-012 and collagenase induced cell death (% vs untreated cells)” value (RZL12 30 μM, Collagenase 10 μM, 24 h of incubation) was 83.68% and the “Average RZL-012 and collagenase induced cell death (% vs untreated cells)” value (RZL12 30 μM, Collagenase 30 μM, 2 h of incubation) was 46.0%. The “Average RZL-012 and collagenase induced cell death (% vs untreated cells)” value (RZL12 30 μM, Collagenase 30 μM, 24 h of incubation) was 90.00%, the “Average RZL-012 and collagenase induced cell death (% vs untreated cells)” value (RZL12 100 μM, Collagenase 0, 2 h of incubation) was 99.7% and the “Average RZL-012 and collagenase induced cell death (% vs untreated cells)” value (RZL12 100 μM, Collagenase 0, 24 h of incubation) was 99.89%. For the same compound, the “Average RZL-012 and collagenase induced cell death (% vs untreated cells)” value (RZL12 100 μM, Collagenase 0.1 μM, 2 h of incubation) was 99.5%, the “Average RZL-012 and collagenase induced cell death (% vs untreated cells)” value (RZL12 100 μM, Collagenase 0.1 μM, 24 h of incubation) was 99.66% and the “Average RZL-012 and collagenase induced cell death (% vs untreated cells)” value (RZL12 100 μM, Collagenase 0.3 μM, 2 h of incubation) was 99.3%. For the same compound, the “Average RZL-012 and collagenase induced cell death (% vs untreated cells)” value (RZL12 100 μM, Collagenase 0.3 μM, 24 h of incubation) was 99.60%, the “Average RZL-012 and collagenase induced cell death (% vs untreated cells)” value (RZL12 100 μM, Collagenase 1 μM, 2 h of incubation) was 98.9% and the “Average RZL-012 and collagenase induced cell death (% vs untreated cells)” value (RZL12 100 μM, Collagenase 1 μM, 24 h of incubation) was 99.65%. The “Average RZL-012 and collagenase induced cell death (% vs untreated cells)” value (RZL12 100 μM, Collagenase 3 μM, 2 h of incubation) was 97.4%, the “Average RZL-012 and collagenase induced cell death (% vs untreated cells)” value (RZL12 100 μM, Collagenase 3 μM, 24 h of incubation) was 99.89% and the “Average RZL-012 and collagenase induced cell death (% vs untreated cells)” value (RZL12 100 μM, Collagenase 10 μM, 2 h of incubation) was 72.4%. For the same compound, the “Average RZL-012 and collagenase induced cell death (% vs untreated cells)” value (RZL12 100 μM, Collagenase 10 μM, 24 h of incubation) was 99.92%, the “Average RZL-012 and collagenase induced cell death (% vs untreated cells)” value (RZL12 100 μM, Collagenase 30 μM, 2 h of incubation) was 76.4% and the “Average RZL-012 and collagenase induced cell death (% vs untreated cells)” value (RZL12 100 μM, Collagenase 30 μM, 24 h of incubation) was 99.99%. The “Average RZL-012 and collagenase induced cell death (% vs untreated cells)” value (RZL12 300 μM, Collagenase 0, 2 h of incubation) was 99.9%, the “Average RZL-012 and collagenase induced cell death (% vs untreated cells)” value (RZL12 300 μM, Collagenase 0, 24 h of incubation) was 100.00% and the “Average RZL-012 and collagenase induced cell death (% vs untreated cells)” value (RZL12 300 μM, Collagenase 0.1 μM, 2 h of incubation) was 99.6%. The “Average RZL-012 and collagenase induced cell death (% vs untreated cells)” value (RZL12 300 μM, Collagenase 0.1 μM, 24 h of incubation) was 99.67%, the “Average RZL-012 and collagenase induced cell death (% vs untreated cells)” value (RZL12 300 μM, Collagenase 0.3 μM, 2 h of incubation) was 99.6% and the “Average RZL-012 and collagenase induced cell death (% vs untreated cells)” value (RZL12 300 μM, Collagenase 0.3 μM, 24 h of incubation) was 99.74%. The “Average RZL-012 and collagenase induced cell death (% vs untreated cells)” value (RZL12 300 μM, Collagenase 1 μM, 2 h of incubation) was 99.1%, the “Average RZL-012 and collagenase induced cell death (% vs untreated cells)” value (RZL12 300 μM, Collagenase 1 μM, 24 h of incubation) was 99.96% and the “Average RZL-012 and collagenase induced cell death (% vs untreated cells)” value (RZL12 300 μM, Collagenase 3 μM, 2 h of incubation) was 96.6%. For the same compound, the “Average RZL-012 and collagenase induced cell death (% vs untreated cells)” value (RZL12 300 μM, Collagenase 3 μM, 24 h of incubation) was 99.76%, the “Average RZL-012 and collagenase induced cell death (% vs untreated cells)” value (RZL12 300 μM, Collagenase 10 μM, 2 h of incubation) was 89.2% and the “Average RZL-012 and collagenase induced cell death (% vs untreated cells)” value (RZL12 300 μM, Collagenase 10 μM, 24 h of incubation) was 99.82%. For the same compound, the “Average RZL-012 and collagenase induced cell death (% vs untreated cells)” value (RZL12 300 μM, Collagenase 30 μM, 2 h of incubation) was 89.5%, the “Average RZL-012 and collagenase induced cell death (% vs untreated cells)” value (RZL12 300 μM, Collagenase 30 μM, 24 h of incubation) was 100.01% and the “concentrations at which the cytotoxic effect was observed” value (at all time points (2, 6, 24 h)) was over 30 µM.
